We go through two compounds from patent publication US9849151B2, “Salacia compositions, methods of treatment by their administration, and methods of their preparation” (priority 2013, dated 2017).

The test system of one assay is 3T3L1 cells. In words: Lipolysis assay, glycerol release in 3T3L1 adipocytes. Format: cell-based. The following applies: 24 h, Salacia composition 100 ug/ml, isoproterenol 10 uM, ratio higher than 1.40 = enhances lipolysis. On the procedure: The assay is carried out to assess the ability of the extracts to breakdown triglycerides to glycerol and free fatty acids. The Salacia composition, such as that of Example 1 was screened for lipolysis in 3T3L1 cell model. 3T3L1 preadipocytes were cultured for a week in Dulbecco modified Eagle's medium (DMEM) supplemented with 10% new calf serum, 25 mM glucose, 2 mM glutamine, 100 U/ml penicillin, 100 ug/ml streptomycin at 37° C. in 5% CO2 atmosphere until 100% confluence. Two days after confluence, the differentiation of 3T3L1 into adipocytes was initiated using (DMEM) supplemented with 10% fetal bovine serum (FBS), 25 mM glucose, 2 mM glutamine, 100 U/ml penicillin, 100 ug/ml streptomycin and differentiation inducers (0.5 mM isobutyl-methylxanthine (IBMX), 10 μg/ml insulin and 1 μM dexamethasone) for 48 h (day 0-day 2). The cells were then cultured for another 48 h with the same medium containing only 10 μg/ml insulin (day 2 to day 4), then with only the medium (day 4 to day 6). The Salacia composition, such as that of Example 1 was added to the medium at the concentration 100 ug/ml for 24 h and assessed for lipolysis. […] The glycerol released after 24 h in the cell media was assessed using glycerol reagent (sigma) and expressed relative to the cellular protein content. The protein content was assessed using bicinchoninic acid (BCA) PierceTM kit. […]

Assay [1] has as its system Hormone Sensitive lipase (HSL). In words: Hormone Sensitive Lipase assay, Western blot densitometry of adipocyte lysates. Format: cell-based. The settings on record: 3T3L1 adipocytes treated 24 h, non-treated = 1.00. On the procedure:
The glycerol released after 24 h in the cell media was assessed using glycerol reagent (sigma) and expressed relative to the cellular protein content. The protein content was assessed using bicinchoninic acid (BCA) PierceTM kit. […] Proteins were collected from cell lysates of 3T3L1 adipocytes treated for 24 h with the Salacia composition or isoproterenol. Protein samples were blotted and probed for total hormone sensitive lipase (HSL), and phosphorylated hormone sensitive lipase at […]. Then, the ratio of phosphorylated-HSL to total HSL was compared between treated and non-treated samples.
Background: Immunoblotting shows a protein as a band on a membrane.

Assay [2] in a line: Antioxidant activity by DPPH assay. The settings on record: at 20 μM. On the procedure:
The capacity of plant extracts or fractions to directly react with and quench free radicals was evaluated as described earlier (Cheng et al 2006). A stock solution of DPPH (200 μM) was prepared in ethanol. The assay was performed in 96-well plates. The reaction mixture, containing 100 μL of DPPH and 100 μL of test sample, was incubated at 37° C. for 30 min. The absorbance was measured at 515 nm. Gallic acid was used as a positive control. Percent DPPH radical scavenging activity was calculated as follows. [Reference: Cheng Z, Morre J, Yub L (2006) J Agric Food Chem, 54: 7429-7436] % radical scavenging activity=[1−(sample-blank)/(control-blank)]×100

Turning to `CC(C)NCC(O)c1ccc(O)c(O)c1` (centres unmarked) [Isoproterenol], the Glycerol/protein ratio in the assay on 3T3L1 cells is listed as 1.50. In addition, the “Phospho-HSL (densitometry)” value in assay [1] (Serine 563) was determined as 2.63. Also, in assay [1], the “Ratio phosphorylated-HSL/Total HSL” value worked out at 1.01 and the “Total HSL (densitometry)” value is reported as 2.60.
Regarding `O=C(O)c1cc(O)c(O)c(O)c1` [Gallic acid], the “% radical scavenging activity (DPPH)” value in assay [2] is on record as 86%.
